From patent US6215002A, “Pyrrolopyrrolone derivatives as inhibitors of neutrophil elastase” (priority 1996, dated 2001)
Structures can show the parent of a compound that is named as a salt.

biological target: T1, human neutrophil elastase (Homo sapiens, UniProt P08246); assay: In vitro assay of human neutrophil elastase (HNE); assay type: biochemical; conditions: 118 nM purified human neutrophil elastase, pH 8.6, 15 min incubation at 30° C., MeO-succinyl-alanyl-alanyl-prolyl-valyl-p-nitroanilide substrate; read-out: HNE IC50
T1 sequence (P08246 30-267): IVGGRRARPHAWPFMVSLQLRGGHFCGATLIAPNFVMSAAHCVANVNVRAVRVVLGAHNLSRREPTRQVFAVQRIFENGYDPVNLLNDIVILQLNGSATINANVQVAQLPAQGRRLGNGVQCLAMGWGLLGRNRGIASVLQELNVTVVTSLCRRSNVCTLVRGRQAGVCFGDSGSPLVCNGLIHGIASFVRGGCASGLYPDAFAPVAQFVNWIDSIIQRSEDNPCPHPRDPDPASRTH
Outline: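 Residual activity was taken as the 10 min rate of absorbance rise at 405 nm after adding 0.6 mM MeO-succinyl-AAPV-p-nitroanilide. Curve fitting of activity against concentration gave IC50.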

Compound | IC50
CCC[C@H]1C(=O)N(S(C)(=O)=O)[C@H]2CCN(C(=O)CCCN3CCC3)[C@H]12 (relative stereo) [Example 84, rel-(3R,3aR,6aS)-4-(4-Azetidin-1-yl-butyryl)-1-methanesulfonyl-3-propyl-hexahydro-pyrrolo[3,2-b]pyrrol-2-one DL-tartrate] | 0.134 µM
CCC[C@H]1C(=O)N(S(C)(=O)=O)[C@H]2CCN(C(=O)CCN3CCCCCC3)[C@H]12 (relative stereo) [Example 99, hydrochloride] | 0.079 µM
CCC[C@H]1C(=O)N(S(=O)(=O)c2ccccc2)[C@H]2CCN(S(=O)(=O)CCCN3CCCCC3)[C@H]12 (relative stereo) [Example 208, rel-(3R,3aR,6aS)-1-Benzenesulfonyl-4-(3-piperidin-1-yl-propane-1-sulfonyl)-3-propyl-hexahydro-pyrrolo[3,2-b]pyrrol-2-one DL-tartrate] | 0.054 µM
CCC[C@H]1C(=O)N(S(=O)(=O)c2ccc3ccccc3c2)[C@H]2CCN(S(=O)(=O)CCCN3CCCCC3)[C@H]12 (relative stereo) [Example 13, rel-(3R,3aR,6aS)-1-(Naphthalene-2-sulfonyl)-(3-piperidin-1-yl-propane-1-sulfonyl)-3-propyl-hexahydro-pyrrolo[3,2-b]pyrrol-2-one] | 0.543 µM
CCC[C@H]1C(=O)N(S(C)(=O)=O)[C@H]2CCN(S(=O)(=O)c3ccc(N4CCCC4=O)cc3)[C@H]12 (relative stereo) [Example 212, rel-(3R,3aR,6aS)-1-Methanesulfonyl-4-[4-(2-oxo-pyrrolidin-1yl)-benzenesufonyl]-3-propyl-hexahydro-pyrrolo[3,2-b]pyrrol-2-one] | 0.03 µM
CS(=O)(=O)N1C(=O)[C@H](C2CC2)[C@@H]2[C@@H]1CCN2C(=O)/C=C/CN1CCCCC1 (relative stereo) [Example 257, rel-(3R,3aR,6aS)-3-Cyclopropyl-1-methanesulfonyl-4-(4-piperidin-1-yl-but-2E-enoyl)-hexahydro-pyrrolo[3,2-b]pyrrol-2-one hydrochloride] | 0.062 µM
CCC[C@H]1C(=O)N(S(C)(=O)=O)[C@H]2CCN(C(=O)CCCCCN3CCCCCC3)[C@H]12 [Example 115, (3R,3aR,6aS)-4-(6-Azepin-1-yl-hexanoyl)-1-methanesulfonyl-3-propyl-hexahydro-pyrrolo[3,2-b]pyrrol-2-one hydrochloride] | 0.314 µM
C=CC[C@H]1C(=O)N(S(=O)(=O)c2csc3ccccc23)[C@H]2CCN(C(=O)OCc3ccccc3)[C@H]12 (relative stereo) [Example 41, rel-(3aS,6R,6aR)-6-Allyl-4-(benzo[b]thiophene-3-sulfonyl)-5-oxo-hexahydro-pyrrolo[3,2-b]pyrrole-1-carboxylic acid benzyl ester] | 0.084 µM
CCC[C@H]1C(=O)N(S(C)(=O)=O)[C@H]2CCN(C(=O)c3cccnc3)[C@H]12 (relative stereo) [Example 247, rel-(3R,3aR,6aS)-1-Methanesulfonyl-3-propyl-4-(pyridine-3-carbonyl)-hexahydro-pyrrolo[3,2-b]pyrrol-2-one] | 0.028 µM
CCC[C@H]1C(=O)N(S(=O)(=O)c2cccc3ccccc23)[C@H]2CCN(C(=O)C3CCN(C(=O)OC(C)(C)C)CC3)[C@H]12 (relative stereo) [Example 16, rel-(3aS,6R,6aR)-4-[4-(Naphthalene-1-sulfonyl)-5-oxo-6-propyl-hexahydro-pyrrolo[3,2-b]pyrrole-1-carbonyl-carbonyl]-piperidine-1-carboxylic acid tert-butyl] | 0.267 µM
CCC[C@H]1C(=O)N(S(=O)(=O)c2c(C)noc2C)[C@H]2CCN(C(=O)CCN3CCCCC3)[C@H]12 (relative stereo) [Example 170, rel-(3R,3aR,6aS)-1-(3,5-Dimethyl-isoxazole-4-sulfonyl)-4-(3-piperidin-1-yl-propionyl)-3-propyl-hexahydro-pyrrol[3,2-b]pyrrol-2-one DL-tartrate] | 0.18 µM
CCC[C@H]1C(=O)N(S(C)(=O)=O)[C@H]2CCN(S(=O)(=O)c3ccc(C#N)cc3)[C@H]12 (relative stereo) [Example 218, rel-4-(4-Methanesulfonyl-5-oxo-6R-propyl-hexahydro-(3aS,6aR)-pyrrolo[3,2-b]pyrrole-1-sulfonyl)-benzonitrile] | 0.026 µM
CCC[C@H]1C(=O)N(S(C)(=O)=O)[C@H]2CCN(C(=O)c3ccc(C(F)(F)F)cc3)[C@H]12 (relative stereo) [Example 244, rel-(3R,3aR,6aS)-1-Methanesulfonyl-3-propyl-(4-trifluoromethyl-benzoyl)-hexahydro-pyrrolo[3,2-b]pyrrol-2-one] | 0.011 µM
CCC[C@H]1C(=O)N(S(C)(=O)=O)[C@H]2CCN(S(=O)(=O)c3cn(C)cn3)[C@H]12 (relative stereo) [Example 7, rel-(3R,3aR,6aS)-1-Methanesulfonyl-4-(1-methyl-1H-imidazole-4-sulfonyl)-3-propyl-hexahydro-pyrrolo[3,2-b]pyrrol-2-one] | 0.134 µM
CCC[C@H]1C(=O)N(S(=O)(=O)c2ccc3ccccc3c2)[C@H]2CCN(C(=O)CCc3ccccn3)[C@H]12 (relative stereo) [Example 48, rel-(3R,3aR,6aS)-1-(Naphthalene-2-sulfonyl)-3-propyl-4-(3-pyridin-2yl-propionyl)-hexahydro-pyrrolo[3,2-b]pyrrol-2-one] | 0.122 µM
CCC[C@H]1C(=O)N(S(C)(=O)=O)[C@H]2CCN(C(=O)/C=C/c3ccc(NC(C)=O)cc3)[C@H]12 (relative stereo) [Example 134, rel-N-{4-[3-(4-Methanesulfonyl-5-oxo-6R-propyl-hexahydro-(3aS,6aR)-pyrrolo[3,2-b]pyrrol-1-yl)-3-oxo-(E)-propenyl]-phenyl}acetamide] | 0.023 µM
CCC[C@H]1C(=O)N(S(C)(=O)=O)[C@H]2CCN(S(=O)(=O)c3ccc(CN(C)C)cc3)[C@H]12 (relative stereo) [Example 196, rel-(3R,3aR,6aS)-4-(4-Dimethylaminomethyl-benzenesulfonyl)-1-methanesulfonyl-3-propyl-hexahydro-pyrrolo[3,2-b]pyrrol-2-one hydrochloride] | 0.034 µM
CCC[C@H]1C(=O)N(S(C)(=O)=O)[C@H]2CCN(C(=O)c3ccncc3)[C@H]12 (relative stereo) [Example 246, rel-(3R,3aR,6aS)-1-Methanesulfonyl-3-propyl-4-(pyridine-4-carbonyl)-hexahydro-pyrrolo[3,2-b]pyrrol-2-one] | 0.021 µM
CCC[C@H]1C(=O)N(S(C)(=O)=O)[C@H]2CCN(S(=O)(=O)c3ccc(CN4CCCCC4)cc3)[C@H]12 (relative stereo) [Example 194, rel-(3R,3aR,6aS)-1-Methanesulfonyl-4-(4-piperidin-1-ylmethyl-benzenesulfonyl)-3-propyl-hexahydro-pyrrolo[3,2-b]pyrrol-2-one hydrochloride] | 0.06 µM
C=CC[C@H]1C(=O)N(S(=O)(=O)Cc2ccccc2)[C@H]2CCN(C(=O)OCc3ccccc3)[C@H]12 (relative stereo) [Example 21, rel-3aS,6R,6aR)-6-Allyl-5-oxo-4-phenylmethanesylfonyl-hexahydro-pyrrolo[3,2-b]pyrrole-1-carboxylic acid benzyl ester] | 0.491 µM
CCC[C@H]1C(=O)N(S(C)(=O)=O)[C@H]2CCN(C(=O)CNC(C)=O)[C@H]12 (relative stereo) [Example 114, rel-N-[2-(4-Methanesulfonyl-5-oxo-6R-propyl-hexahydro-(3aS,6aR)-pyrrolo[3,2-b]pyrrol-1-yl)-2-oxo-ethyl]-acetamide] | 0.042 µM
